# Like-named read-outs stand apart in the source and are kept apart here.
# Experiments:
# glucocorticoid receptor = glucocorticoid receptor (Homo sapiens, UniProt P04150); conditions: at a concentration of ≦10 μM, A549 cells
# Method: Cells are plated the day before the assay at approximately 40000 cells/well. […] Activity is measured by analysis in a luminometer as compared to control experiments treated with buffer or dexamethasome.
# AR [1] = molecular target: T1, AR (Rattus norvegicus, UniProt P15207); conditions: castrated rats, dosing for 3 days
# T1 sequence (P15207 1-902): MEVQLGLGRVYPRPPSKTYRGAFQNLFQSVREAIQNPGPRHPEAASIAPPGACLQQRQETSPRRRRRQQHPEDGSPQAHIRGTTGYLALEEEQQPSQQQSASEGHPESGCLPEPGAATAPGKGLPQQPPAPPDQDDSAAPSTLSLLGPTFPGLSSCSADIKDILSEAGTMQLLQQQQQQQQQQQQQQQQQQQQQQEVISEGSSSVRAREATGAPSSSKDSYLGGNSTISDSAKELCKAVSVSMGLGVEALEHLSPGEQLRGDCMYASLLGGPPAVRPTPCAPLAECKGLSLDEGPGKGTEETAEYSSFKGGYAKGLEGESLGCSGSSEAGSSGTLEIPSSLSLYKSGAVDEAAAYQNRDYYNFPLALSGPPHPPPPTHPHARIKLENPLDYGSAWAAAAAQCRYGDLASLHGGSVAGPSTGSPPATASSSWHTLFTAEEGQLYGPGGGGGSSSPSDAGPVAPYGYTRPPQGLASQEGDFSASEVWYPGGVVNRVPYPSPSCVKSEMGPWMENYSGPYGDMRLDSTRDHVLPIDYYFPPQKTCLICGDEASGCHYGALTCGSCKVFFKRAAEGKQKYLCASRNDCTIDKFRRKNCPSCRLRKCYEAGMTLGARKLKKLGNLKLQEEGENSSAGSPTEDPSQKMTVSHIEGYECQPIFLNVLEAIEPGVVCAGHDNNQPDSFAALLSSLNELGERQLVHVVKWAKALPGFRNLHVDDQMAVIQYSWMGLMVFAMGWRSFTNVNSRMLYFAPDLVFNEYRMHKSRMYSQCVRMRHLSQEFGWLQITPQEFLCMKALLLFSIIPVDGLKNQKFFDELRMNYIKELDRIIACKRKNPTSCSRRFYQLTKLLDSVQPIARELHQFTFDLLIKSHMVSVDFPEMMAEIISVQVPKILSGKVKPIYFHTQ
# Text: The activity of compounds of the present invention as AR agonists is investigated in an immature male rat model, a recognized test of anabolic effects in muscle and sustaining effects in sex organs for a given compound, as described in L. G. Hershberger et al., Proc. Soc.
# The basis of this assay lies in the well-defined action of androgenic agents on the maintenance and growth of muscle tissues and sexual accessory organs in animals and man. […] As described above, the effects of androgens on maintenance of male sexual accessory organs, such as the prostate and seminal vesicles, was described. […] Since both the levator ani muscle and the male sex organs are the tissues most responsive to the effects of androgenic agents, this model is used to determine the androgen dependent reversal of atrophy in the levator ani muscle and the sex accessory organs in immature castrated rats. Sexually mature rats (200-250 g, 6-8 weeks-old, Sprague-Dawley, Harlan) are acquired castrated from the vendor (Taconic). The rats are divided into groups and treated daily for 7 to 14 days with one of the following: • 1. Control vehicle • 2. […] TP plus Casodex (administered p.o. in PEGTW, QD), a recognized antiandrogen, as a reference compound. • 4. […] At the end of the 7-14-day treatment, the animals are sacrificed by carbon dioxide, and the levator ani, seminal vesicle and ventral prostate weighed. […]
# AR [2] = molecular target: T1, AR
# wild type AR = test: AR whole cell binding assay, saturation analysis, MDA 453 cells; set-up: species or system human; conditions: read-out: Kd for [^3H]-DHT, Scatchard analysis
# Chain of glucocorticoid receptor (P04150 whole entry): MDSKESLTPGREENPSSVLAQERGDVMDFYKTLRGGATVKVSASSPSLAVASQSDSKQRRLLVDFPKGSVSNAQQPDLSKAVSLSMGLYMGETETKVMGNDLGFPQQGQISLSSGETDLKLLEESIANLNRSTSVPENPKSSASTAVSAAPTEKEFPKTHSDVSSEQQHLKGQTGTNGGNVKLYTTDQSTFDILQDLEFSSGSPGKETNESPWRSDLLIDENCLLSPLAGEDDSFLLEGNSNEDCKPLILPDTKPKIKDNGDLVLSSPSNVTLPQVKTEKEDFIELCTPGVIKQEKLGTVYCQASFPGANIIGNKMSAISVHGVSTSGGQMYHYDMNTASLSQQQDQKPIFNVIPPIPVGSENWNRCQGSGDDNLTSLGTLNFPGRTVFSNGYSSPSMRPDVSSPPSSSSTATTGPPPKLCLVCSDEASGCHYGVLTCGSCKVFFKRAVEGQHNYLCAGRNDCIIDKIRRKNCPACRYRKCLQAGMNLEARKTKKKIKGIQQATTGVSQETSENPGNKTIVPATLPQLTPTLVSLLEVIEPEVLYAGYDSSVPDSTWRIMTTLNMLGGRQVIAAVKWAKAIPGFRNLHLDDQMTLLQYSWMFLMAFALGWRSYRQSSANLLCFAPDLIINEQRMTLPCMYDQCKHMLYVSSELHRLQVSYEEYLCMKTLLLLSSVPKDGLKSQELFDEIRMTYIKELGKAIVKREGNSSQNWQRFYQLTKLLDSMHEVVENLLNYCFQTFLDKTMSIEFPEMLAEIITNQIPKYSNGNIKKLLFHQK
smiles,measurement,setting,value
C[C@@H]1C[C@H]2[C@@H]3CCC4=CC(=O)C=C[C@]4(C)[C@@]3(F)[C@@H](O)C[C@]2(C)[C@@]1(O)C(=O)CO [dexamethasone],suppression of activity (% inhibition of the reporter system vs buffer control with 10 ng/ml PMA),glucocorticoid receptor,~65%
"CCC(=O)O[C@H]1CC[C@H]2[C@@H]3CCC4=CC(=O)CC[C@]4(C)[C@H]3CC[C@]12C [TP, testosterone propionate]",EC50 (increase in organ weight),AR [1],~0.03 mg
same,ED80 of TP,AR [2]; immature castrated rat model,0.1 mg
same,EC50 (increase in organ weight),"AR [2]; immature castrated rats, dosing for 3 days",~0.03 mg

# From patent US7550458B2, “Tricycloundecane compounds useful as modulators of nuclear hormone receptor function” (Bristol-Myers Squibb Company, priority 2005, dated 2009)
